Consider 15 molecules from patent publication US10604782B2, “High-throughput fluorescent screening assay for inhibitors of gram-negative bacterial iron uptake” (Kansas State University Research Foundation, priority 2015, dated 2020).

≈ marks a conversion by molar mass, not a printed value. Where two headings read alike, the source gives them in different places. Where only a bound is given, the exact number is not on record here.

The subject of experiment [1] is TonB-dependent FeEnt uptake through FepA (E. coli OKN3/pITS23FepAS271C-FM). Kind of experiment: microbe, parasite or virus in culture. Format: cell-based, Escherichia coli. The conditions noted are these: for IC50: read-out: 50% Inhibition, Concentration (IC50).
For experiment [2], the system named is FeEnt utilization by E. coli OKN3 + pITS23 (FepA). Kind of experiment: Siderophore nutrition test, FeEnt. Format: cell-based, Escherichia coli. The conditions noted are these: for growth halo phenotype in siderophore nutrition test, in words: 100 μM compound (FIG. 6A).
The subject of experiment [3] is Fc utilization by E. coli OKN3 + pITS23 (transported by FhuA). The experiment is described as follows: Siderophore nutrition test, Fc. The format is cell-based, Escherichia coli.
Experiment [4] has as its system killing of E. coli MG1655 by colicin B (FepA, TonB-dependent). Format: cell-based, Escherichia coli.
In a further experiment the test system is E. coli MG1655. Kind of experiment: Minimal inhibitory concentration assay in LB. Format: cell-based, Escherichia coli. The conditions noted are these: two-fold dilutions up to […].
Experiment [5] relates to FeEnt utilization by A. baumannii. Kind of experiment: FeEnt siderophore nutrition test in A. baumannii. Format: cell-based, Acinetobacter baumannii.
The next experiment has as its system A. baumannii 17978. The experiment is described as follows: Minimal inhibitory concentration assay in LB, A. baumannii. The format is cell-based, Acinetobacter baumannii.
For a further experiment, the system named is TonB. The format is cell-based, Escherichia coli.
For experiment [6], the system named is TonB-dependent FeEnt uptake through FepAS271C-FM. The format is cell-based, Escherichia coli.
[7] abbreviates: E. coli OKN3 + pITS23, 50 μM FeEnt, 100 μM compound in DMSO, untreated 1.45 ± 0.123.
Setting [8] is: E. coli OKN3 + pITS23, 50 μM Fc, 100 μM compound in DMSO, untreated 1.54 ± 0.105.
[9] abbreviates: percent killing of MG1655 by ColB in the presence of sub-toxic concentration of compound in DMSO, untreated 98.34 ± 2.38.
Setting [10] is: Escherichia coli, MG1655, E. coli MG1655 in LB, dash = MIC >[…], read-out: MIC.
Setting [11] is: A. baumannii, 50 μM FeEnt, 100 μM compound in DMSO, untreated 1.16 ± 0.065.
Setting [12] is: Acinetobacter baumannii, 17978, read-out: MIC.
[13] abbreviates: halo increase >5% or no halo, killing prevented by >5%.
Where [14] appears, read: Escherichia coli, […], cells pre-incubated 30 minutes at 37° C. with inhibitor.
Where [15] appears, read: […], cells pre-incubated 30 minutes at 37° C. with inhibitor.

With `[N-]=[N+]=[N-]` [Azide, azide], in [1], the “100% Inhibition, Concentration (IC100)” value was determined as 18 mM and the IC50 was 9 mM.

For the molecule `O=c1cc(-c2ccccc2)oc2cc(O)c(O)c(O)c12` [Baicalein], in experiment [2], the “growth halo phenotype in siderophore nutrition test, in words” value is listed as “two unique halos”. Moreover, the entries for the “FeEnt Halo” value in experiment [2] (setting [7]) and in experiment [5] (setting [11]) were 1.65 ± 0.050 cm and 1.23 ± 0.098 cm, respectively. Also, the “Fc Halo” value in [3] (setting [8]) is reported as 1.65 ± 0.045 cm. In addition, the “% Colicin B killing” value in experiment [4] (setting [9]) is 54.6 ± 13.2%. Also, the minimum inhibitory concentration (MIC) in the experiment on E. coli MG1655 (setting [10]) and in the experiment on A. baumannii 17978 (setting [12]) was above 512 µM each time. For the same molecule, the “inhibition in the secondary screens (FeEnt utilization, Fc utilization, ColB killing)” value (shortened to “inhibition in the secondary screens”) in the experiment on TonB (setting [13]) is on record as “inhibition in all three of the three secondary screens”.

As for `O=c1oc2c(O)c(O)cc3c(=O)oc4c(O)c(O)cc1c4c23` [Ellagic acid], in experiment [2], the “growth halo phenotype in siderophore nutrition test, in words” value is reported as “two unique halos”. Further, the “FeEnt Halo” value in [2] (setting [7]) is reported as 1.61 ± 0.075 cm; in experiment [5] (setting [11]), 1.08 ± 0.041 cm. For the same molecule, the “Fc Halo” value in experiment [3] (setting [8]) was determined as 1.36 ± 0.197 cm. For the same molecule, the “% Colicin B killing” value in experiment [4] (setting [9]) worked out at 82.9 ± 3.75%. In addition, the MIC was above 512 µM in the experiment on E. coli MG1655 (setting [10]) and 256 µM (≈ 77.4 µg/mL) in the experiment on A. baumannii 17978 (setting [12]). The “inhibition in the secondary screens” value in the experiment with TonB (setting [13]) is “inhibitory in two of the three secondary assays”.

Regarding `O=[N+]([O-])c1ccc(O)c([N+](=O)[O-])c1` [DNP, 2,4-dinitrophenol], the IC50 in experiment [1] (setting [14]) turned out to be 0.75 mM. The “effect on FeEnt binding and transport in words” value in experiment [1] (FeEnt plus energy poison added to cells (FIG. 1A)) is listed as “did not affect binding but prevented transport”. In addition, the “100% Inhibition, Concentration (IC100)” value in [1] (setting [15]) is reported as 1.5 mM.

Take `N#CC(C#N)=NNc1cccc(Cl)c1` [CCCP, carbonyl cyanide m-chlorophenylhydrazone]: the IC50 in experiment [1] (setting [14]) amounted to 0.005 mM. Besides, in [1] (setting [15]), the “100% Inhibition, Concentration (IC100)” value is given as 0.01 mM. In experiment [6] (96-well plate, 10 nM FeEnt, CCCP 20 uM, 50 min time course (FIG. 2B)), the “fluorescence recovery (FeEnt uptake) in words” value is recorded as “fully prevented fluorescence recovery”. The “recovered fluorescence in words” value in experiment [6] (384-well plate format, increasing concentrations of CCCP (FIG. 3)) is “dose-responsive decrease in recovered fluorescence”.

As to `COc1cccc(O)c1O` [3-Methoxycatechol], the “FeEnt Halo” value in experiment [2] (setting [7]) was found to be 1.50 ± 0.100 cm; in experiment [5] (setting [11]), 1.12 ± 0.025 cm. In addition, the “Fc Halo” value in [3] (setting [8]) is given as 1.60 ± 0.500 cm. Moreover, the “% Colicin B killing” value in experiment [4] (setting [9]) is on record as 98.2 ± 2.27%. Further, the MIC in the experiment with E. coli MG1655 (setting [10]) and in the experiment on A. baumannii 17978 (setting [12]) was above 512 µM throughout.

On to `Cc1cc(N)c2ccccc2[n+]1CCCCCCCCCC[n+]1c(C)cc(N)c2ccccc21` [Dequalinium Chloride], for which the “FeEnt Halo” value amounted to 1.43 ± 0.110 cm in experiment [2] (setting [7]) and 1.14 ± 0.017 cm in experiment [5] (setting [11]). Further, the “Fc Halo” value in experiment [3] (setting [8]) came out at 1.55 ± 0.131 cm. The “% Colicin B killing” value in experiment [4] (setting [9]) was found to be 98.7 ± 1.10%. For the same molecule, the minimum inhibitory concentration (MIC) in the experiment on E. coli MG1655 (setting [10]) and with A. baumannii 17978 (setting [12]) was above 512 µM in each case.

Consider arsenate, for which, in experiment [1], the “100% Inhibition, Concentration (IC100)” value worked out at 180 mM and the IC50 came to 90 mM.

On to Zinc pyrithione, for which the “FeEnt Halo” value in experiment [2] and in experiment [5] was 0 cm each time. In addition, the “Fc Halo” value in experiment [3] came to 0 cm. Besides, the “% Colicin B killing” value in [4] is 20.4 ± 5.90%. In the experiment with A. baumannii 17978 (read-out: MIC), the minimum inhibitory concentration (MIC) came to 16 µM. In addition, the “inhibition in the secondary screens” value with TonB is reported as “inhibition in all three of the three secondary screens”.

As to `CC(=O)[O-].CC(=O)[O-].[Cd+2]` [Cadmium acetate], the “FeEnt Halo” value in experiment [2] was 2.22 ± 0.076 cm; in experiment [5], 0 cm. In addition, the “Fc Halo” value in [3] was found to be 2.08 ± 0.42 cm. The “% Colicin B killing” value in [4] came to 98.4 ± 0.43%. Moreover, the minimal inhibitory concentration (MIC) in the experiment on A. baumannii 17978 (read-out: MIC) worked out at 256 µM. Also, in the experiment with TonB, the “inhibition in the secondary screens” value is “inhibitory in two of the three secondary assays”.

With `O=C1C(Cl)=C(Cl)C(=O)C(Cl)=C1Cl` [P-Chloranil], the “FeEnt Halo” value in experiment [2] (setting [7]) is given as 1.51 ± 0.148 cm; in [5] (setting [11]), 1.14 ± 0.015 cm. In addition, the “Fc Halo” value in experiment [3] (setting [8]) is given as 1.57 ± 0.059 cm. For the same molecule, the “% Colicin B killing” value in experiment [4] came to 93.0 ± 3.36%. For the same molecule, the MIC entry in the experiment on E. coli MG1655 (E. coli MG1655 in LB, […]) is listed as “— (If MIC >512 μM, value not listed)”; in the experiment with A. baumannii 17978 (A. baumannii 17978 in LB, two-fold dilutions up to […], […]), “— (If MIC >512 μM, value not listed)”. For the same molecule, the “differential impact on transport of FeEnt, Fc and ColB, in words” value in the experiment on TonB is reported as “inhibited ColB but not FeEnt or Fc transport”.

Consider `N.N.O=C([O-])C1(C(=O)[O-])CCC1.[Pt+2]` [Carboplatin], for which the “FeEnt Halo” value in experiment [2] (setting [7]) was found to be 1.54 ± 0.031 cm; in experiment [5] (setting [11]), 1.10 ± 0.050 cm. In addition, the “Fc Halo” value in experiment [3] (setting [8]) is on record as 1.62 ± 0.015 cm. The “% Colicin B killing” value in experiment [4] (setting [9]) turned out to be 100 ± 0.00%. In addition, the MIC result against E. coli MG1655 (E. coli MG1655 in LB, dash = MIC >[…]) was “— (If MIC >512 μM, value not listed)”; in the experiment with A. baumannii 17978 (A. baumannii 17978 in LB, two-fold dilutions up to […], dash = MIC >[…]) it was “— (If MIC >512 μM, value not listed)”.

As for `C[C@@](Cc1ccc(O)c(O)c1)(NN)C(=O)O` [Carbidopa], the “FeEnt Halo” value in experiment [2] (setting [7]) is 1.58 ± 0.089 cm; in [5] (setting [11]) it was 1.10 ± 0.015 cm. The “Fc Halo” value in [3] (setting [8]) worked out at 1.65 ± 0.055 cm. In addition, in [4] (setting [9]), the “% Colicin B killing” value is recorded as 96.0 ± 2.0%. For the same molecule, the MIC with E. coli MG1655 (setting [10]) and in the experiment on A. baumannii 17978 (setting [12]) was above 512 µM each time.

Thimerosal: the “FeEnt Halo” value in [2] and in [5] was 0 cm in each case. Also, the “Fc Halo” value in experiment [3] was 0 cm. In addition, the “% Colicin B killing” value in experiment [4] is given as 98.6 ± 0.98%. Besides, in the experiment on A. baumannii 17978 (read-out: MIC), the MIC is on record as 1 µM. Moreover, the “inhibition in the secondary screens” value with TonB is “inhibition in all three of the three secondary screens”.

For `O=c1c2ccccc2[se]n1-c1ccccc1` [Ebselen], the “FeEnt Halo” value in experiment [2] (setting [7]) and in [5] (setting [11]) was 0 cm throughout. In addition, the “Fc Halo” value in experiment [3] (setting [8]) was 0 cm. Moreover, the “% Colicin B killing” value in experiment [4] (setting [9]) worked out at 93.4 ± 2.25%. Also, the MIC in the experiment with E. coli MG1655 (E. coli MG1655 in LB, dash = MIC >[…], read-out: MIC) was 128 µM (≈ 35.1 µg/mL); in the experiment on A. baumannii 17978 (setting [12]) it was 32 µM (≈ 8.77 µg/mL).
